In ChEMBL document CHEMBL4725338, “Discovery of novel histone lysine methyltransferase G9a/GLP (EHMT2/1) inhibitors: Design, synthesis, and structure-activity relationships of 2,4-diamino-6-methylpyrimidines” (Bioorg Med Chem Lett, 2020):
In brackets after ≈: the same amount, converted by molar mass. Activity calls are given as the source filed them. The rule behind the calls is not given here.

Key:
[1] = target: T1, CYP2C8 (Homo sapiens, UniProt P10632); assay: Inhibition of CYP2C8 (unknown origin) at 10 uM relative to control; type: ADME
T1 sequence (P10632 whole entry): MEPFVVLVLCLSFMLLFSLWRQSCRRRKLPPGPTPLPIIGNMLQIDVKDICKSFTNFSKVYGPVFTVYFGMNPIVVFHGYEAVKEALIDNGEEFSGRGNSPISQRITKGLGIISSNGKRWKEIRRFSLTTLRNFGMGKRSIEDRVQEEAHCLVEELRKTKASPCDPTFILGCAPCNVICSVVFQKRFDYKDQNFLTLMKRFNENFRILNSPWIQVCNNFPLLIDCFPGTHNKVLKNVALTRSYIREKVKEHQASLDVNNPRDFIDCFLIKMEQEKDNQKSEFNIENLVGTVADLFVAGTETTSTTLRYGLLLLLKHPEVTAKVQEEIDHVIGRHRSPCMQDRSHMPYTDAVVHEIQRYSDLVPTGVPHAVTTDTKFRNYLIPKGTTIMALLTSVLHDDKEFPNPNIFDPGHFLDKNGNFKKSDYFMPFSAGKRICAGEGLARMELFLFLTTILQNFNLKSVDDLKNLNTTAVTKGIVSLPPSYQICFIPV

[2] = Metabolic stability in monkey liver microsomes assessed as compound remaining at 0.5 mg/mL incubated for 0.5 hrs; type: ADME, Macaca mulatta, Microsome; settings: rhesus monkey, read-out: Stabilty
[3] = target: CYP2C9 (Homo sapiens, UniProt P11712); assay: Inhibition of CYP2C9 (unknown origin) at 10 uM relative to control; type: ADME
CYP2C9, sequence (P11712 whole entry): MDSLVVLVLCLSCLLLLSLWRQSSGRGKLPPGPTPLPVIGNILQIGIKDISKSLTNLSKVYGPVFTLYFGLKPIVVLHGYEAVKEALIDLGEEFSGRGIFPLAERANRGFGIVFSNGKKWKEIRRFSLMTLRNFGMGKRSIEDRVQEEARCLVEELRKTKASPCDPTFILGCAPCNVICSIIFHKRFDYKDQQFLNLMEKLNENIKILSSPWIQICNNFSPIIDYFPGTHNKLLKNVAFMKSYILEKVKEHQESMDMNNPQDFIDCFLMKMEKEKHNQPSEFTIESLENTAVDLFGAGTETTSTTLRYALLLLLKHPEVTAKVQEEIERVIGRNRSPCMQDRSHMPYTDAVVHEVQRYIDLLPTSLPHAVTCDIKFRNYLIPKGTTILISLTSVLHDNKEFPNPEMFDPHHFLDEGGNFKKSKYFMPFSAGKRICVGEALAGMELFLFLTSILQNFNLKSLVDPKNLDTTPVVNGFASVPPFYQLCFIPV

[4] = target: T2, CYP3A4 (Homo sapiens, UniProt P08684); assay: Inhibition of CYP3A4 (unknown origin) at 10 uM relative to control; type: ADME
T2 sequence (P08684 whole entry): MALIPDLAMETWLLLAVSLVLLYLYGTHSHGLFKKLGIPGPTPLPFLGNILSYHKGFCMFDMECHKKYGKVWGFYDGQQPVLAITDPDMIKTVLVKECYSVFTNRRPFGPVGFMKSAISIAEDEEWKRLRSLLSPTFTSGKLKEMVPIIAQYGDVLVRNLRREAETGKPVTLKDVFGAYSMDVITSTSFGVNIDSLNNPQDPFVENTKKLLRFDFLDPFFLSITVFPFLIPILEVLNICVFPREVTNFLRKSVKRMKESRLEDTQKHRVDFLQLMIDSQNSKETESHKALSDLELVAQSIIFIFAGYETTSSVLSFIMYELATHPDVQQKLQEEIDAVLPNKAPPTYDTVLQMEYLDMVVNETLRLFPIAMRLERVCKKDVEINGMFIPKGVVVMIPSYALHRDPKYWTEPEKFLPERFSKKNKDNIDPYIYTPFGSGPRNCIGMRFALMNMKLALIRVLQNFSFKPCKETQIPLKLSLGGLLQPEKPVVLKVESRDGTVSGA

[5] = Initial plasma concentration in mouse at 1 mg/kg, iv; type: ADME, organism-based
[6] = tested on: CD34-positive (myeloid/lymphoid) cell; assay: Induction of fetal globin in human CD34+ cells assessed as switching of mRAN expression from adult beta-globin to fetal type gamma globin at 0.3 to 1 uM by qRT-PCR analysis; type: functional, cell-based
[7] = Aqueous solubility of the compound in pH 1.2 JP1 fluid; type: physicochemical
[8] = Apparent permeability in MDCK cells; type: ADME, cell-based, Canis lupus familiaris; settings: dog
[9] = target: T3, Histone-lysine N-methyltransferase EHMT2 (Homo sapiens, UniProt Q96KQ7); assay: Inhibition G9a (unknown origin)
T3 sequence (Q96KQ7 whole entry): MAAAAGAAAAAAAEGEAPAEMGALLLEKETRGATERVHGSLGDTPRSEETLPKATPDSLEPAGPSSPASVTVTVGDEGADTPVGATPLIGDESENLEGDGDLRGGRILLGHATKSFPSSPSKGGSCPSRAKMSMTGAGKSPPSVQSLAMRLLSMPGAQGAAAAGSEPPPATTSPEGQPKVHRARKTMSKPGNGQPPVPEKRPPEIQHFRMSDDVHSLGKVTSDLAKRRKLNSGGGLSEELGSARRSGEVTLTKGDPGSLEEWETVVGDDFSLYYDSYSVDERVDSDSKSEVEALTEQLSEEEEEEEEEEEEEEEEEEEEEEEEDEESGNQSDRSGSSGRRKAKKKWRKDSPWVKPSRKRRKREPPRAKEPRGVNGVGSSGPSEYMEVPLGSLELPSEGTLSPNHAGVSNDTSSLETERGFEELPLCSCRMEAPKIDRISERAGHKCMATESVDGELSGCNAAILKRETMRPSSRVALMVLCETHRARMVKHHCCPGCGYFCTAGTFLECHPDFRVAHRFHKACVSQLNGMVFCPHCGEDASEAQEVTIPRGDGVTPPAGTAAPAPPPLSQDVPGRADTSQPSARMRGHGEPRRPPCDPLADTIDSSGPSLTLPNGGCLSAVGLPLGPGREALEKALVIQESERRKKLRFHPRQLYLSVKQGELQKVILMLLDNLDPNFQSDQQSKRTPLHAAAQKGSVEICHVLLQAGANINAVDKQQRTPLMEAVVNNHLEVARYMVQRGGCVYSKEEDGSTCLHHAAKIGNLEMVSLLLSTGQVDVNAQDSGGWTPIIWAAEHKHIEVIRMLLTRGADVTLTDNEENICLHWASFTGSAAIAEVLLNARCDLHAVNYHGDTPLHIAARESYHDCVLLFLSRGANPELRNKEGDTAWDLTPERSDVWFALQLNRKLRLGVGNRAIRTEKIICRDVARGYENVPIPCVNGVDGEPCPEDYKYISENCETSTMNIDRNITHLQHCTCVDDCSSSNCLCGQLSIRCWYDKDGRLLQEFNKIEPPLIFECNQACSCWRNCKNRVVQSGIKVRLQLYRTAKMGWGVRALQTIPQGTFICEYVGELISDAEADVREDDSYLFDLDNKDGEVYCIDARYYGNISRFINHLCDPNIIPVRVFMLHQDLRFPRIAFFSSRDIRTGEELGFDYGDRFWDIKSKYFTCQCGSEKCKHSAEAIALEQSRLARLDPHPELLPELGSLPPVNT

[10] = Tmax in mouse at 10 mg/kg, po; type: ADME, organism-based; settings: in vivo
[11] = target: T2, CYP3A4; assay: Mechanism based inhibition of CYP3A4 in human liver microsome assessed as remaining percentage at 100 uM in presence of substrate ACN preincubated 30 mins followed by substrate addition relative to control; type: ADME; settings: liver microsomes, probe ACN (so in the source), read-out: Activity
[12] = Oral bioavailability in mouse at 10 mg/kg; type: ADME, organism-based; settings: in vivo
[13] = Metabolic stability in human liver microsomes assessed as compound remaining at 0.5 mg/mL incubated for 0.5 hrs; type: ADME, Microsome; settings: read-out: Stabilty
[14] = target: CYP2C19 (Homo sapiens, UniProt P33261); assay: Inhibition of CYP2C19 (unknown origin) at 10 uM relative to control; type: ADME
CYP2C19, sequence (P33261 whole entry): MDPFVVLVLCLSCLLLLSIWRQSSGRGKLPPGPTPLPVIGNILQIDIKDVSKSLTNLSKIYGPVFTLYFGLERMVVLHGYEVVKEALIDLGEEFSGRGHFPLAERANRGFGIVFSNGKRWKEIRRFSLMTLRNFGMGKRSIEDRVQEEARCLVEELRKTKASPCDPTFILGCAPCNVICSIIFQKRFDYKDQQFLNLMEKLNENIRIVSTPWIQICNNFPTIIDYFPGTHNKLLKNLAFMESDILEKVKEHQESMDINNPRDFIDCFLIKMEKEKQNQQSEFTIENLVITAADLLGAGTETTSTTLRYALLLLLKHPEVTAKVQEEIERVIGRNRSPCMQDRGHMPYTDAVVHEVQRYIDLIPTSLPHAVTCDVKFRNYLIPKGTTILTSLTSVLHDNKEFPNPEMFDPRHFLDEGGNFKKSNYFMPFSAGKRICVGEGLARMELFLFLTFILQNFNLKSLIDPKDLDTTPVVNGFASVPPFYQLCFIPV

[15] = AUC (0 to infinity) in mouse at 1 mg/kg, iv; type: ADME, organism-based; design: time infinity, route intravenous, dose 1 mg/kg; settings: in vivo
[16] = Volume of distribution at steady state in mouse at 1 mg/kg, iv; type: ADME, organism-based; settings: in vivo, read-out: Vdss
[17] = target: hERG (KCNH2) (Homo sapiens, UniProt Q12809); assay: Inhibition of human ERG at 10 uM relative to control
hERG (KCNH2), sequence (Q12809 whole entry): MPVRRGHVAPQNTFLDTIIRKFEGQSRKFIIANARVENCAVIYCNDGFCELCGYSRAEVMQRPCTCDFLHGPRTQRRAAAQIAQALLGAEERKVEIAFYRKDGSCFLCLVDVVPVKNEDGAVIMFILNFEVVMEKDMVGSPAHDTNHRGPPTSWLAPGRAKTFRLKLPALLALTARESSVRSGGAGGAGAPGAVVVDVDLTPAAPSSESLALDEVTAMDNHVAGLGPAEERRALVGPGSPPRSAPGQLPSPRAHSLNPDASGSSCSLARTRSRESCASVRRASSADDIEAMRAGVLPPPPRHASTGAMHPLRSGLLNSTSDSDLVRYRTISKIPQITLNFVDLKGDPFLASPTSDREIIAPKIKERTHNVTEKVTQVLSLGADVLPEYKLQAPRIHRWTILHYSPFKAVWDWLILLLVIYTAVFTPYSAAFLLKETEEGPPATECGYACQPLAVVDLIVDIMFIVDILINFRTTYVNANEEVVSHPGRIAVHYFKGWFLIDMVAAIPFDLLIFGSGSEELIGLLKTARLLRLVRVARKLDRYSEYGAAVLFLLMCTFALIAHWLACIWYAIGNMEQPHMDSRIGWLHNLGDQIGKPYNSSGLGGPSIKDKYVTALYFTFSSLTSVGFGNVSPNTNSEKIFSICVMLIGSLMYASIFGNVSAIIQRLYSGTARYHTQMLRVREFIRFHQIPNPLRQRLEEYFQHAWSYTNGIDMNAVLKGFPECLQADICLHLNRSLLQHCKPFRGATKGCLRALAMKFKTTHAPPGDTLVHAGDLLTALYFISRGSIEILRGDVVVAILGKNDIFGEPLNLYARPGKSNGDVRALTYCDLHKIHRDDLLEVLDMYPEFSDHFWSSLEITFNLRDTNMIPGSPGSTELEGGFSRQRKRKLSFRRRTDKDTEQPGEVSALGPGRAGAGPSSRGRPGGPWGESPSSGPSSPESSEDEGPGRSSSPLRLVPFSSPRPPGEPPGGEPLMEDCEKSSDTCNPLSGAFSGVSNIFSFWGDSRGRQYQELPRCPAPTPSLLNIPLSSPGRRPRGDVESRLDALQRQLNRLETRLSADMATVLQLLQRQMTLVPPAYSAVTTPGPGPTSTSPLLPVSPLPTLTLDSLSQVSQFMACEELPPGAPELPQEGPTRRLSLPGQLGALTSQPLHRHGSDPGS

SMILES | inhibition at 10 µM [1] [%] | remaining at 0.5 h [2] [%] | inhibition at 10 µM [3] [%] | inhibition at 10 µM [4] [%] | C0 [5] [nM] | Activity [6] | solubility [7] [µg/mL] | Papp [8] [×10⁻⁶ cm/s] | IC50 [9] [nM] | Tmax [10] [h] | activity at 30 min, 100 µM [11] [%] | bioavailability [12] [%] | remaining at 0.5 h [13] [%] | inhibition at 10 µM [14] [%] | AUC(0-inf) [15] [µM·h] | Vd [16] [L/kg] | inhibition at 10 µM [17] [%]
CNc1cc(C)nc(Nc2ccc(OC)c(C3=CCNCCC3)c2)n1 | 0 | 24 | 0 | 0 | 400 | Active | 680 (≈ 2000 µM) | 1.4 | 4.31 | 2 | 80.5 | 40 | 96 | 9 | 0.79 | 24.6 | 1
CNc1cc(C)nc(Nc2ccc(OC)c(OCCCN3CCCC3)c2)n1 | 2 | 8 | 0 | 8 | 260 | Active | 740 (≈ 1990 µM) | 3.1 | 16.9 | 5.5 | 93.6 | 17 | 99 | 3 | 1.71 | 8.3 | 42
